In publication PMC4890880 (ACS infectious diseases, 2016):
Where two headings read alike, the source gives them in different places.

Legend:
[1] = tested on: Plasmodium berghei (Pb-Luc) exoerythrocytic-stage parasites; assay: microbe, parasite or virus in culture
HepG2-A16-CD81EGFP cells = assay: cells; conditions: Homo sapiens; for IC50: HepG2, read-out: Tox IC50; for inhibition at 50 µM: HepG2, read-out: Tox max inhibition (%) @ 50 uM
[2] = read-out: Inhibition% @ 50 uM rep1
[3] = read-out: Inhibition% @ 50 uM rep2
[4] = HepG2, read-out: HepG2 Tox% @ 50 uM rep1
[5] = HepG2, read-out: HepG2 Tox% @ 50 uM rep2
[6] = read-out: PbLuc IC50, dose response, 1/3 dilutions, max conc. 10 or 50 uM, unit inferred
[7] = read-out: PbLuc max inhibition (%) @ 50 uM

Compound	inhibition at 50 µM [1, 2] [%]	inhibition at 50 µM [1, 3] [%]	cytotoxicity at 50 µM (HepG2-A16-CD81EGFP cells; [4]) [%]	cytotoxicity at 50 µM (HepG2-A16-CD81EGFP cells; [5]) [%]	IC50 [1, 6] [µM]	inhibition at 50 µM [1, 7] [%]	IC50 (HepG2-A16-CD81EGFP cells) [µM]	inhibition at 50 µM (HepG2-A16-CD81EGFP cells) [%]	IC50 ([1]; read-out: PbLuc IC50) [µM]
Cc1ccc(C)c(Cn2c(N3CCC(C(=O)NCc4cccs4)CC3)nc3ccccc32)c1 [MMV019741]	103	104	98						
CCN(CC)CCNc1ccnc2cc(Cl)ccc12 [MMV006087]	101	103	53	87					
CCOC(=O)c1c(C)n(-c2ccccc2)c2ccc(OC(=O)c3cc(OC)c(OC)c(OC)c3)cc12 [MMV396664]	100	101	61						
CN(C)c1ccc(C(O)(c2ccc(N(C)C)cc2)c2ccc(N(C)C)cc2)cc1 [MMV665941]	102	104	95	97	1.69	99	2.31	96	
Cc1ccc(-c2nc3ccccc3o2)cc1NCc1cc(Cc2ccccc2)ccc1O [MMV020912]	75	76	13						
COc1cc(-c2nc(-c3ccc(Sc4ccccc4)cc3)c(-c3ccccc3)[nH]2)cc(OC)c1O [MMV007273]	101	102	89		7.67	100	34.1	82	
CC(C)(C)CC(C)(C)NCC(O)COc1ccc2c(c1)CCC2 (stereo not shown) [MMV665817]	103	104	96	98					
c1ccc(-c2ccc(-c3nc4ccccc4[nH]3)cc2)cc1 [MMV665891]	103	105	39	30					
O=C(Nc1ccc(Cl)c(Cl)c1)Nc1ccc(Cl)c(Cl)c1 [MMV665852]	103	104	100		0.669	100	4.86	101	
CCN(CC)CCNc1ncnc2c1[nH]c1ccc(Br)cc12 [MMV006545]	104	106	99	101					
CCn1nc(-c2ccc(C(=O)OC)cc2)nc2c(=O)n(C)c(=O)nc1-2 [MMV306025]	104	105	99	101					
Cc1ccc(OCCCCCCNCCO)c(C)c1 [MMV666020]	104	104	90						
CC(Oc1ccc(NC(=O)c2cccs2)cc1)C(=O)c1ccc(Cl)cc1 (stereo not shown) [MMV665886]	102	102	82						
COC(=O)c1ccc(C2C3=C(O)CC(c4ccc(F)cc4)CC3=Nc3ccccc3N2C(=O)c2ccccc2)cc1 (stereo not shown) [MMV011438]	98	96	-12		3.16	97	> 50	8	
COc1ccc(C(=O)NC(c2ccc(Cl)cc2Cl)c2cc(Cl)c3cccnc3c2O)cc1 (stereo not shown) [MMV666054]	100	102	98		1.58	101	12.7	88	
COc1ccc2nc(C)cc(Nc3ccccc3O)c2c1 [MMV274073]	100	100	59	88					
O=C(Nc1ccc(-c2nc3cc4ccccc4cc3[nH]2)cc1)c1cccc(Br)c1 [MMV019241]	91	91	41						

Compound	inhibition at 50 µM [1, 2] [%]	inhibition at 50 µM [1, 3] [%]	cytotoxicity at 50 µM (HepG2-A16-CD81EGFP cells; [4]) [%]	cytotoxicity at 50 µM (HepG2-A16-CD81EGFP cells; [5]) [%]	IC50 [1, 6] [µM]	inhibition at 50 µM [1, 7] [%]	IC50 (HepG2-A16-CD81EGFP cells) [µM]	inhibition at 50 µM (HepG2-A16-CD81EGFP cells) [%]	IC50 ([1]; read-out: PbLuc IC50) [µM]
O=C1C2=C(Nc3ccccc3SC2c2ccccc2)c2ccccc21 (stereo not shown) [MMV645672]	104	104	87						
Cc1ccc2c(C)nc(Nc3nc(C)cc(-c4ccccc4)n3)nc2c1 [MMV007041]	103	103	37						
Cc1ccnc(NC(c2cccc(OCc3ccccc3)c2)c2ccc3cccnc3c2O)c1 (stereo not shown) [MMV000720]	103	103	99		1.28	100	5.05	99	
CC(=O)NCCc1nc2ccccc2n1Cc1ccc(C(C)C)cc1 [MMV007617]	104	106	81	80					
COc1cccc(Cn2c(Oc3ccccc3)nc3c2c(=O)n(C)c(=O)n3C)c1 [MMV396705]	99	99	47						
Cc1ccc(Nc2nc(-c3ccccn3)cs2)cc1 [MMV007907]	103	106	93	96					
CC(=O)c1ccc(NC(=O)CSc2nc(-c3ccccc3Cl)ns2)cc1 [MMV666124]	104	104	96						
Cc1ccc(NC(=O)Nc2cccc(Cl)c2)cc1F [MMV000911]	104	105	85	89					
CCOc1cc(CNC(C)C(O)c2ccccc2)cc(Cl)c1OCC (stereo not shown) [MMV396633]	101	102	98	99					
c1ccc2cc3c(Nc4ccc(N5CCOCC5)cc4)ccnc3cc2c1 [MMV006861]	103	105	78	99					
COc1ccc(CCn2c(=N)c(C(=O)NCc3cccnc3)cc3c(=O)n4cccc(C)c4nc32)cc1 [MMV667488]	81	83	-0.0644						
O=C(Nc1nc(-c2ccccn2)cs1)c1ccccc1Br [MMV665909]	98	98	79	86					
c1ccc2c(NCCc3c[nH]c4ccccc34)c3ccccc3nc2c1 [MMV006513]	98	101	97						
COc1ccc(C2c3ccc4ccccc4c3Oc3ncn(CCCN(C)C)c(=N)c32)cc1 (stereo not shown) [MMV667491]	103	103	99		4	94	10.7	93	
c1ccc2c(NCCCCCCNc3c4c(nc5ccccc35)CCCC4)c3c(nc2c1)CCCC3 [MMV019555]	104	104	100			100	14.5	101	1.39
CC(O)(c1ccc(Cl)cc1)C(CN1CCCCC1)c1ccccc1 (stereo not shown) [MMV000620]	101	102	63	90					
